Reference: patent US7968588B2, “Injectable formulation of antibiotic and solution for intravenous administration thereof” (eRigen Pharmaceuticals, Inc., priority 2006, dated 2011)
Starred links: 1 amine or outer side, 2 acyl side, 3 side chain; linkers in the order of their positions; H or OH if unused. Positions of bridges follow the written chain, without caps; N, C: chain ends. Non-standard residues stand in square brackets, D forms with d. Residues, ends and D or L forms follow the SMILES beside them. ξ: configuration not given here. ξAsn(3ξ-OH) = NC(=O)C(O)C(N)C(=O)O; X1 = CC(C)CCCC(CC(=O)[*:1])O[*:2]; NMeF = CN[CH](Cc1ccccc1)C(=O)O; NMeV = CN[CH](C(=O)O)C(C)C; Orn = NCCC[CH](N)C(=O)O

Test system: MRSA (strain ATCC 33591)
Assay: In vivo efficacy study in a MRSA infection model in mice
Set-up: species or system Staphylococcus aureus
Settings: for survival (%) at dosage 1.0 mg/kg: single i.v. dose 1.0 mg/kg one hour after i.v. MRSA inoculation; for survival (%) at dosage 3.0 mg/kg: single i.v. dose 3.0 mg/kg one hour after i.v. MRSA inoculation; for 50% effective dose: single i.v. dose, calculated from the survival rate at each dosage
Description: Efficacy was compared between the present solution of WAP-8294A2 prepared in the manner shown in Example 4 and vancomycin for injection (5% dextrose solution) using an MRSA infection model in mice.
The 50% effective dose (mg/kg) was calculated from the survival rate at each dosage.

Compound | survival (%) at dosage 1.0 mg/kg (observed for a week) [%] | survival (%) at dosage 3.0 mg/kg (observed for a week) [%] | survival (%) at dosage 10 mg/kg (single i.v. dose 10 mg/kg one hour after i.v. MRSA inoculation, observed for a week) [%] | 50% effective dose [mg/kg] | survival (%) at dosage 0.01 mg/kg (single i.v. dose 0.01 mg/kg one hour after i.v. MRSA inoculation, observed for a week) [%] | survival (%) at dosage 0.03 mg/kg (single i.v. dose 0.03 mg/kg one hour after i.v. MRSA inoculation, observed for a week) [%] | survival (%) at dosage 0.1 mg/kg (single i.v. dose 0.1 mg/kg one hour after i.v. MRSA inoculation, observed for a week) [%] | survival (%) at dosage 0.3 mg/kg (single i.v. dose 0.3 mg/kg one hour after i.v. MRSA inoculation, observed for a week) [%]
CN[C@H](CC(C)C)C(=O)N[C@H]1C(=O)N[C@@H](CC(N)=O)C(=O)N[C@H]2C(=O)N[C@H]3C(=O)N[C@H](C(=O)N[C@H](C(=O)O)c4cc(O)cc(O)c4-c4cc3ccc4O)[C@H](O)c3ccc(c(Cl)c3)Oc3cc2cc(c3O[C@@H]2O[C@H](CO)[C@@H](O)[C@H](O)[C@H]2O[C@H]2C[C@](C)(N)[C@H](O)[C@H](C)O2)Oc2ccc(cc2Cl)[C@H]1O [vancomycin, reference compound] | 0 | 30 | 100 | 3.12 | – | – | – | –
CC(C)CCCC1CC(=O)NC(CO)C(=O)NC(C(O)C(N)=O)C(=O)NC(CO)C(=O)NCC(=O)N(C)C(Cc2ccccc2)C(=O)NC(CC(C)C)C(=O)NC(CCCN)C(=O)NC(CCC(=O)O)C(=O)NC(CC(N)=O)C(=O)NC(Cc2c[nH]c3ccccc23)C(=O)NC(CCCN)C(=O)N(C)C(C(C)C)C(=O)O1 (centres unmarked) [WAP-8294A2] (S[ξAsn(3ξ-OH)]SG[NMeF]L[Orn]ENW[Orn][NMeV]; linker N-C via X1; configuration not given here) | 100 | 100 | – | 0.06 | 10 | 30 | 60 | 100
